Blank lines part the entries; values can stand above or below the compound they belong to.
Assays:
Type in all cases: cell-based
hPPARα (LBD) = target: T1, hPPARα (LBD) (Homo sapiens, UniProt Q07869); experiment: GAL4-hPPARα (LBD) luciferase reporter transactivation in CV-1 cells; conditions: about 40 hours, relative to GW-590735 as 100%, read-out: PPAR activities EC50 PPARα
T1 construct: The receptor expression plasmid (pSG5-GAL4-hPPARα or γ or δ (LBD)); GAL4 (fusion partner); expressed in transfected cells; host or cells: CV-1 cells (ATCC)
T1 sequence (Q07869 239-466 limits assumed): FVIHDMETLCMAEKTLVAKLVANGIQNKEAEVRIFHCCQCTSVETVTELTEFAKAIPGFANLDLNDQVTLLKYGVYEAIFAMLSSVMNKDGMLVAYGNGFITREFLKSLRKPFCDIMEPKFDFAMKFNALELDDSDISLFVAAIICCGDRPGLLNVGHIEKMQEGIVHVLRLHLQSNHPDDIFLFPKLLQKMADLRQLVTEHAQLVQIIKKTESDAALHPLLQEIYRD
Procedure: (§1) The PPARδ activation effect of the compounds of the present invention was determined as follows (measurement of the PPAR activation effect of the test compounds (compounds in the examples)).
(§2) The receptor expression plasmid (pSG5-GAL4-hPPARα or γ or δ (LBD)), luciferase expression plasmid (pUC8-MH100×4-TK-Luc) and β-galactosidase expression plasmid (pCMX-β-GAL) (Kliewer, S. A. et. al., (1992) Nature, 358:771-774) were introduced into CV-1 cells (ATCC).
(§3) After gene introduction using the lipofection reagent DMRIE-C or Lipofectamin 2000 (Invitrogen), the cells were cultured in the presence of the test compound for 42 hours. Lysed cells were tested for luciferase activity and β-GAL activity.
(§4) The following methods were used to determine the PPAR activation effect of the tested compounds (compounds in the examples)
(§5) Receptor expression plasmid (pSG5-GAL4-hPPARα, 7 or 6 (LBD)), luciferase expression plasmid (pUC8-MH100×4-TK-Luc) and β-Galactosidase expression plasmid (pCMX-β-GAL) (Kilewer, S. A. et. al., (1992) Nature, 358: 771-774) were introduced into CV-1 cells (ATCC). After gene introduction using a lipofection reagent (Lipofectamine 2000 (Invitrogen)), the cells were cultured in the presence of the test compounds for about 40 hours.

hPPARγ (LBD) = target: T2, hPPARγ (LBD) (Homo sapiens, UniProt P37231); experiment: GAL4-hPPARγ (LBD) luciferase reporter transactivation in CV-1 cells; conditions: about 40 hours, relative to Rosiglitazone as 100%, read-out: PPAR activities EC50 PPARγ
T2 construct: The receptor expression plasmid (pSG5-GAL4-hPPARα or γ or δ (LBD)); GAL4 (fusion partner); expressed in transfected cells; host or cells: CV-1 cells (ATCC)
T2 sequence (P37231 238-503 limits assumed): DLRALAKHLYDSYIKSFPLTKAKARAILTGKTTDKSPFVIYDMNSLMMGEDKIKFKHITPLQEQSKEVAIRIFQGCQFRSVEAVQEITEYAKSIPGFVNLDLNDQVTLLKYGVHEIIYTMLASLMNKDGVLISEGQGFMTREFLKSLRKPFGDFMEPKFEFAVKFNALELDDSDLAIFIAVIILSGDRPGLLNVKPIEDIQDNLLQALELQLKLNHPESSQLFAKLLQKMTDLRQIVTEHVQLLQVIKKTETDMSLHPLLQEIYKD
Procedure: as §1, §2, §3, §4, §5

hPPARδ (LBD) = target: T3, hPPARδ (LBD) (Homo sapiens, UniProt Q03181); experiment: GAL4-hPPARδ (LBD) luciferase reporter transactivation in CV-1 cells; conditions: about 40 hours, relative to GW-501516 as 100%, read-out: PPAR activities EC50 PPARδ
T3 construct: The receptor expression plasmid (pSG5-GAL4-hPPARα or γ or δ (LBD)); GAL4 (fusion partner); expressed in transfected cells; host or cells: CV-1 cells (ATCC)
T3 sequence (Q03181 211-439 limits assumed): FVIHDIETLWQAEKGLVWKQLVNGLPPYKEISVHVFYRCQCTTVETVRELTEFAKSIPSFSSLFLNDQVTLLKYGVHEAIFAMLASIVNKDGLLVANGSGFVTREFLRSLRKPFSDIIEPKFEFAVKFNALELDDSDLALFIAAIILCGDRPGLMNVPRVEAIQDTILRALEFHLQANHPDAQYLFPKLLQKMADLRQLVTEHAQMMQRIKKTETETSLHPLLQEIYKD
Procedure: as §1, §2, §3, §4, §5

EC50 (hPPARα (LBD)): 0.104 µM
EC50 (hPPARγ (LBD)): 186 nM
EC50 (hPPARδ (LBD)): 36.5 nM
SMILES: CCc1cc(COc2ccccc2Cn2c(CCc3ccc(Cl)cc3Cl)nc3cc(Br)ccc32)ccc1CCC(=O)O [Compound 3, 3-(4-((2-((5-Bromo-2-(2.4-dichlorophenethyl)-1H-benzo[d]imidazol-1-yl)methyl)phenoxy)methyl)-2-ethylphenyl)propanoic acid]

EC50 (hPPARα (LBD)): 3.42 µM
EC50 (hPPARγ (LBD)): 672 nM
EC50 (hPPARδ (LBD)): 142 nM
SMILES: CCc1cc(COc2ccccc2Cn2c(CN3CCCC3)nc3cc(Br)ccc32)ccc1CCC(=O)O [Compound 14]

The remaining lines, values behind:

SMILES: CCc1cc(COc2ccccc2Cn2c(CN3CCCC3)nc3cc(Br)ccc32)ccc1OCC(=O)O [Compound 50]
EC50 (hPPARα (LBD)): 3.99 µM
EC50 (hPPARγ (LBD)): 2040 nM
EC50 (hPPARδ (LBD)): 803 nM

SMILES: CCc1cc(COc2ccccc2Cn2c(CCCN3CCCC3)nc3cc(Br)ccc32)ccc1OCC(=O)O [Compound 15, 2-(4-((2-((5-Bromo-2-(3-(pyrrolidin-1-yl)propyl)-1H-benzo[d]imidazol-1-yl)methyl)phenoxy)methyl)-2-ethylphenoxy)acetic acid]
EC50 (hPPARα (LBD)): 2.11 µM
EC50 (hPPARγ (LBD)): 9110 nM
EC50 (hPPARδ (LBD)): 6560 nM

SMILES: CCc1cc(COc2ccccc2Cn2c(CCCN3CCCC3)nc3cc(Br)ccc32)ccc1CCC(=O)O [Compound 17, 3-(4-((2-((5-Bromo-2-(3-(pyrrolidin-1-yl)propyl)-1H-benzo[d]imidazol-1-yl)methyl)-phenoxy)methyl)-2-ethylphenyl)propanoic acid]
EC50 (hPPARα (LBD)): 3.05 µM
EC50 (hPPARγ (LBD)): 15400 nM
EC50 (hPPARδ (LBD)): 41800 nM
